What follows are compounds tested on U937 cells (assay: EC50 of necroptosis inhibition in U937 cells (TSZ-induced, CellTiter-Glo)). Settings: Homo sapiens, U-937; TSZ (hTNF-α, SM-164, Z-VAD-FMK) 20 hours; 10 concentration points; read-out: EC50 intervals of necroptosis inhibition in U937 cells.
Format: cell-based
Procedure, shortened: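 U937 cells pretreated 15 min with compound (10-point, 1:3 series), then necroptosis induced by TSZ (hTNF-α, SM-164, Z-VAD-FMK) for 20 h at 37 °C. Viability measured as ATP by CellTiter-Glo luminescence; inhibition normalised to untreated and TSZ-only wells, EC50 from four-parameter fit.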

Compared with `COC(=O)C1(C#Cc2ccc3c(c2)N(C)C(=O)[C@@H](NC(=O)C(=O)NCCc2ccccc2)CO3)CC1` [Example 96, methyl (S)-1-((5-methyl-4-oxo-3-(2-oxo-2-(phenethylamino)acetamido)-2,3,4,5-tetrahydrobenzo[b][1,4]oxazepin-7-yl)ethynyl)cyclopropane-1-carboxylate], `CN1C(=O)[C@@H](NC(=O)C(=O)NCCc2ccsc2)COc2ccccc21` [Example 98, (S)—N-(5-methyl-4-oxo-2,3,4,5-tetrahydrobenzo[b][1,4]oxazepin-3-yl)-N^2-(2-(thiophen-3-yl)ethyl)oxalamide] is higher in EC50: less than 100 nM for the first, 100 to 500 nM for the second. The first is the more potent here.

`CN1C(=O)[C@@H](NC(=O)C(=O)NCCc2cccs2)COc2ccccc21` [Example 97, (S)—N^1-(5-methyl-4-oxo-2,3,4,5-tetrahydrobenzo[b][1,4]oxazepin-3-yl)-N^2-(2-(thiophen-2-yl)ethyl)oxalamide] showed an EC50 of 100 to 500 nM.

Source: patent publication US20250368633A1, “AZEPINE FUSED RING COMPOUND AS RIPK1 INHIBITOR AND USE THEREOF” (ARTIVILA BIOPHARMA, priority 2022, published 2025)
